Tests used:
[1] = test system: Monochoria vaginalis, Presl.; test: Preemergence weed control under flooded paddy conditions, MOOVA (Monochoria); assay type: in vivo; conditions: preemergence, flooded paddy, rated 3-4 weeks after treatment
[2] = test system: Echinochloa oryzoides (Ard.) Fritsch.; test: Preemergence weed control under flooded paddy conditions, ECHORC (Watergrass (Calif.)); assay type: in vivo; conditions: preemergence, flooded paddy, rated 3-4 weeks after treatment
[3] = test system: Cyperus serotinus, Rottb.; test: Preemergence weed control under flooded paddy conditions, CYPSE (Flatsedge); assay type: in vivo; conditions: preemergence, rated 3-4 weeks after treatment
Sagittaria pygmaea, L. = test: Preemergence weed control under flooded paddy conditions, SAGPY (Arrowhead (Pygmaea)); assay type: in vivo; conditions: preemergence, flooded paddy, rated 3-4 weeks after treatment
Cyperus iria = test: Preemergence weed control under flooded paddy conditions, CYPIR (Rice Flatsedge); assay type: in vivo; conditions: preemergence, flooded paddy, rated 3-4 weeks after treatment
[4] = test system: Oryza sativa, (L.) Tebonnet; test: Rice tolerance to post-transplant applications under flooded paddy conditions (Example 187), ORYSAT (Rice, Tebonnet); conditions: rated 3-4 weeks after treatment
Note: meaning of each grade not given here.

With CCOC(=O)C(F)(F)Oc1ccc(C)cc1-c1nsc2ccc(-n3c(=O)cc(C(F)(F)F)n(C)c3=O)cc12 [Example 559, Acetic acid, {{2-{5-[3,6-dihydro-3-methyl-2,6-dioxo-4-(trifluoromethyl)-1(2H)-pyrimidinyl]-1,2-benzisothiazol-3-yl}-p-tolyl}oxy}difluoro-, ethyl ester] the “herbicidal effect rating, MOOVA” value ([1]; Rate 0.0620 kg/ha) was 9.0, the “herbicidal effect rating, MOOVA” value ([1]; Rate 0.1250 kg/ha) was 9.0 and the “herbicidal effect rating, MOOVA” value ([1]; Rate 0.2500 kg/ha) was 9.0. For the same compound, the “herbicidal effect rating, MOOVA” value ([1]; Rate 0.5000 kg/ha) was 9.0, the “herbicidal effect rating, ECHORC” value ([2]; Rate 0.0620 kg/ha) was 3.0 and the “herbicidal effect rating, ECHORC” value ([2]; Rate 0.1250 kg/ha) was 3.0. The “herbicidal effect rating, ECHORC” value ([2]; Rate 0.2500 kg/ha) was 6.0, the “herbicidal effect rating, ECHORC” value ([2]; Rate 0.5000 kg/ha) was 9.0 and the “herbicidal effect rating, CYPSE” value ([3]; Rate 0.0620 kg/ha) was 0.0. The “herbicidal effect rating, CYPSE” value ([3]; Rate 0.1250 kg/ha) was 0.0, the “herbicidal effect rating, CYPSE” value ([3]; Rate 0.2500 kg/ha) was 9.0 and the “herbicidal effect rating, CYPSE” value ([3]; Rate 0.5000 kg/ha) was 9.0. The “herbicidal effect rating, SAGPY” value (Sagittaria pygmaea, L.; Rate 0.0620 kg/ha) was 0.0, the “herbicidal effect rating, SAGPY” value (Sagittaria pygmaea, L.; Rate 0.1250 kg/ha) was 0.0 and the “herbicidal effect rating, SAGPY” value (Sagittaria pygmaea, L.; Rate 0.2500 kg/ha) was 0.0. For the same compound, the “herbicidal effect rating, SAGPY” value (Sagittaria pygmaea, L.; Rate 0.5000 kg/ha) was 0.0, the “herbicidal effect rating, CYPIR” value (Cyperus iria; Rate 0.0620 kg/ha) was 0.0 and the “herbicidal effect rating, CYPIR” value (Cyperus iria; Rate 0.1250 kg/ha) was 0.0. For the same compound, the “herbicidal effect rating, CYPIR” value (Cyperus iria; Rate 0.2500 kg/ha) was 0.0, the “herbicidal effect rating, CYPIR” value (Cyperus iria; Rate 0.5000 kg/ha) was 4.0 and the “herbicidal effect rating ORYSAT” value ([4]; Rate 0.0620 kg/ha) was 1.0. The “herbicidal effect rating ORYSAT” value ([4]; Rate 0.1250 kg/ha) was 1.0, the “herbicidal effect rating ORYSAT” value ([4]; Rate 0.2500 kg/ha) was 2.0 and the “herbicidal effect rating ORYSAT” value ([4]; Rate 0.5000 kg/ha) was 2.0.
In the case of Cc1ccc(OCC(=O)NS(=O)(=O)C(C)C)c(-c2nsc3ccc(-n4c(=O)cc(C(F)(F)F)n(C)c4=O)cc23)c1 [Example 560, Acetamide, 2-{{2-{5-[3,6-dihydro-3-methyl-2,6-dioxo-4-(trifluoromethyl)-1(2H)-pyrimidinyl]-1,2-benzisothiazol-3-yl}-p-tolyl}oxy}-N-(isopropylsulfonyl)-], the “herbicidal effect rating, MOOVA” value ([1]; Rate 0.0320 kg/ha) is reported as 8.0, the “herbicidal effect rating, MOOVA” value ([1]; Rate 0.0620 kg/ha) is reported as 9.0 and the “herbicidal effect rating, MOOVA” value ([1]; Rate 0.1250 kg/ha) is reported as 9.0. For the same compound, the “herbicidal effect rating, MOOVA” value ([1]; Rate 0.2500 kg/ha) was 9.0, the “herbicidal effect rating, MOOVA” value ([1]; Rate 0.5000 kg/ha) was 9.0 and the “herbicidal effect rating, ECHORC” value ([2]; Rate 0.0320 kg/ha) was 2.0. The “herbicidal effect rating, ECHORC” value ([2]; Rate 0.0620 kg/ha) was 3.0, the “herbicidal effect rating, ECHORC” value ([2]; Rate 0.1250 kg/ha) was 4.6 and the “herbicidal effect rating, ECHORC” value ([2]; Rate 0.2500 kg/ha) was 9.0. The “herbicidal effect rating, ECHORC” value ([2]; Rate 0.5000 kg/ha) was 7.0, the “herbicidal effect rating, CYPSE” value ([3]; Rate 0.0320 kg/ha) was 0.0 and the “herbicidal effect rating, CYPSE” value ([3]; Rate 0.0620 kg/ha) was 2.0. For the same compound, the “herbicidal effect rating, CYPSE” value ([3]; Rate 0.1250 kg/ha) was 7.0, the “herbicidal effect rating, CYPSE” value ([3]; Rate 0.2500 kg/ha) was 9.0 and the “herbicidal effect rating, CYPSE” value ([3]; Rate 0.5000 kg/ha) was 9.0. The “herbicidal effect rating, SAGPY” value (Sagittaria pygmaea, L.; Rate 0.0320 kg/ha) was 0.0, the “herbicidal effect rating, SAGPY” value (Sagittaria pygmaea, L.; Rate 0.0620 kg/ha) was 0.0 and the “herbicidal effect rating, SAGPY” value (Sagittaria pygmaea, L.; Rate 0.1250 kg/ha) was 0.0. The “herbicidal effect rating, SAGPY” value (Sagittaria pygmaea, L.; Rate 0.2500 kg/ha) was 0.0, the “herbicidal effect rating, SAGPY” value (Sagittaria pygmaea, L.; Rate 0.5000 kg/ha) was 0.0 and the “herbicidal effect rating, CYPIR” value (Cyperus iria; Rate 0.0320 kg/ha) was 0.0. The “herbicidal effect rating, CYPIR” value (Cyperus iria; Rate 0.0620 kg/ha) was 2.0, the “herbicidal effect rating, CYPIR” value (Cyperus iria; Rate 0.1250 kg/ha) was 7.0 and the “herbicidal effect rating, CYPIR” value (Cyperus iria; Rate 0.2500 kg/ha) was 9.0. For the same compound, the “herbicidal effect rating, CYPIR” value (Cyperus iria; Rate 0.5000 kg/ha) was 3.0, the “herbicidal effect rating ORYSAT” value ([4]; Rate 0.0320 kg/ha) was 3.0 and the “herbicidal effect rating ORYSAT” value ([4]; Rate 0.0620 kg/ha) was 3.0. For the same compound, the “herbicidal effect rating ORYSAT” value ([4]; Rate 0.1250 kg/ha) was 2.0, the “herbicidal effect rating ORYSAT” value ([4]; Rate 0.2500 kg/ha) was 4.0 and the “herbicidal effect rating ORYSAT” value ([4]; Rate 0.5000 kg/ha) was 2.0.
With CNC(=O)COc1ccc(C)cc1-c1nsc2ccc(-n3c(=O)cc(C(F)(F)F)n(C)c3=O)cc12 [Example 561, Acetamide, 2-{{2-{5-[3,6-dihydro-3-methyl-2,6-dioxo-4-(trifluoromethyl)-1(2H)-pyrimidinyl]-1,2-benzisothiazol-3-yl}-p-tolyl}oxy}-N-methyl-] the “herbicidal effect rating, MOOVA” value ([1]; Rate 0.0320 kg/ha) was 9.0, the “herbicidal effect rating, MOOVA” value ([1]; Rate 0.0620 kg/ha) was 9.0 and the “herbicidal effect rating, MOOVA” value ([1]; Rate 0.1250 kg/ha) was 9.0. The “herbicidal effect rating, MOOVA” value ([1]; Rate 0.2500 kg/ha) was 9.0, the “herbicidal effect rating, MOOVA” value ([1]; Rate 0.5000 kg/ha) was 9.0 and the “herbicidal effect rating, ECHORC” value ([2]; Rate 0.0320 kg/ha) was 3.6. For the same compound, the “herbicidal effect rating, ECHORC” value ([2]; Rate 0.0620 kg/ha) was 4.8, the “herbicidal effect rating, ECHORC” value ([2]; Rate 0.1250 kg/ha) was 6.4 and the “herbicidal effect rating, ECHORC” value ([2]; Rate 0.2500 kg/ha) was 9.0. The “herbicidal effect rating, ECHORC” value ([2]; Rate 0.5000 kg/ha) was 9.0, the “herbicidal effect rating, CYPSE” value ([3]; Rate 0.0320 kg/ha) was 0.0 and the “herbicidal effect rating, CYPSE” value ([3]; Rate 0.0620 kg/ha) was 0.0. For the same compound, the “herbicidal effect rating, CYPSE” value ([3]; Rate 0.1250 kg/ha) was 0.0, the “herbicidal effect rating, CYPSE” value ([3]; Rate 0.2500 kg/ha) was 0.0 and the “herbicidal effect rating, CYPSE” value ([3]; Rate 0.5000 kg/ha) was 9.0. For the same compound, the “herbicidal effect rating, SAGPY” value (Sagittaria pygmaea, L.; Rate 0.0320 kg/ha) was 0.0, the “herbicidal effect rating, SAGPY” value (Sagittaria pygmaea, L.; Rate 0.0620 kg/ha) was 0.0 and the “herbicidal effect rating, SAGPY” value (Sagittaria pygmaea, L.; Rate 0.1250 kg/ha) was 1.0. For the same compound, the “herbicidal effect rating, SAGPY” value (Sagittaria pygmaea, L.; Rate 0.2500 kg/ha) was 3.0, the “herbicidal effect rating, SAGPY” value (Sagittaria pygmaea, L.; Rate 0.5000 kg/ha) was 0.0 and the “herbicidal effect rating, CYPIR” value (Cyperus iria; Rate 0.0320 kg/ha) was 3.0. For the same compound, the “herbicidal effect rating, CYPIR” value (Cyperus iria; Rate 0.0620 kg/ha) was 6.0, the “herbicidal effect rating, CYPIR” value (Cyperus iria; Rate 0.1250 kg/ha) was 8.5 and the “herbicidal effect rating, CYPIR” value (Cyperus iria; Rate 0.2500 kg/ha) was 9.0. The “herbicidal effect rating, CYPIR” value (Cyperus iria; Rate 0.5000 kg/ha) was 6.0, the “herbicidal effect rating ORYSAT” value ([4]; Rate 0.0320 kg/ha) was 2.5 and the “herbicidal effect rating ORYSAT” value ([4]; Rate 0.0620 kg/ha) was 4.0. The “herbicidal effect rating ORYSAT” value ([4]; Rate 0.1250 kg/ha) was 3.5, the “herbicidal effect rating ORYSAT” value ([4]; Rate 0.2500 kg/ha) was 4.5 and the “herbicidal effect rating ORYSAT” value ([4]; Rate 0.5000 kg/ha) was 2.0.
